Data taken from ChEMBL document CHEMBL1201862, “PubChem BioAssay data set” (2004).
Activity calls are given as the source filed them.

Columns and labels:
Format in all cases: functional
[1] = biological target: T1, Apoptotic protease-activating factor 1 (Homo sapiens, UniProt O14727); experiment: SAR analysis of small molecule inhibitors of Apaf-1 in a Fluorescent assay.; conditions: read-out: IC50_Mean
T1 sequence (O14727 whole entry): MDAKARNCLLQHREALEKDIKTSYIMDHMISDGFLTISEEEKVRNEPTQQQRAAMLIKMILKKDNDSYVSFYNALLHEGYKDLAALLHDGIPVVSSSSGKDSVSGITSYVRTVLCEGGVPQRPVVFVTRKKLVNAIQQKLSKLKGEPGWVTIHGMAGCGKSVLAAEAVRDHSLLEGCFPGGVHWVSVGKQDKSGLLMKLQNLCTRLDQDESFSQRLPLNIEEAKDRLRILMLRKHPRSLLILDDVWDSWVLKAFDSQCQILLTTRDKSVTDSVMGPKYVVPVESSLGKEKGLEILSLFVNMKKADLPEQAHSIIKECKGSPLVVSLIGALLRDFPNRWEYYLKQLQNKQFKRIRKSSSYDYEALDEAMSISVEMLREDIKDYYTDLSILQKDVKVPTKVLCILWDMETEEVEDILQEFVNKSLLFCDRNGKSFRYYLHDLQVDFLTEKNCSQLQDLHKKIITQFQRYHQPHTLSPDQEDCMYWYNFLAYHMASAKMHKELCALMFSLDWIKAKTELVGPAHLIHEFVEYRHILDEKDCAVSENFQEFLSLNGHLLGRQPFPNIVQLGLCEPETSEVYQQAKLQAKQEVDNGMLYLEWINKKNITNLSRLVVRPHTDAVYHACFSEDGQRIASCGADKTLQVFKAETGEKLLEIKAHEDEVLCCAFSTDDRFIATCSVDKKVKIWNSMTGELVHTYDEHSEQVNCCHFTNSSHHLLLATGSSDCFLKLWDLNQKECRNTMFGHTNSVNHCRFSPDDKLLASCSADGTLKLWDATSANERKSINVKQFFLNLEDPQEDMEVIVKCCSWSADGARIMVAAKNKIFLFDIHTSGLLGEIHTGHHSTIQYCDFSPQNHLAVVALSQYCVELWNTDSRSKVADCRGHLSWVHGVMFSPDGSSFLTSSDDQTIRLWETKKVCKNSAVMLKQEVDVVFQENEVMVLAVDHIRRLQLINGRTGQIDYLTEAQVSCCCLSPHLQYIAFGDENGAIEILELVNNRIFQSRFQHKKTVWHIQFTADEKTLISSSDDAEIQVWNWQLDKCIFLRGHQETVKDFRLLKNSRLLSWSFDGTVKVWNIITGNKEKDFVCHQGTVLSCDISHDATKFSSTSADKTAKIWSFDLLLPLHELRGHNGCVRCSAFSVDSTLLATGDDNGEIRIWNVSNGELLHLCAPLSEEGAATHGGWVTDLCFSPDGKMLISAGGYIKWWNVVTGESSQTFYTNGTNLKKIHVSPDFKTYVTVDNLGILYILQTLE

[2] = biological target: T2, Neuropeptides B/W receptor type 1 (Homo sapiens, UniProt P48145); experiment: GPR7 antagonist potency, late-stage follow-up, cell-based, fluorescence, dose response, set 5 (AID 588566)
T2 sequence (P48145 whole entry): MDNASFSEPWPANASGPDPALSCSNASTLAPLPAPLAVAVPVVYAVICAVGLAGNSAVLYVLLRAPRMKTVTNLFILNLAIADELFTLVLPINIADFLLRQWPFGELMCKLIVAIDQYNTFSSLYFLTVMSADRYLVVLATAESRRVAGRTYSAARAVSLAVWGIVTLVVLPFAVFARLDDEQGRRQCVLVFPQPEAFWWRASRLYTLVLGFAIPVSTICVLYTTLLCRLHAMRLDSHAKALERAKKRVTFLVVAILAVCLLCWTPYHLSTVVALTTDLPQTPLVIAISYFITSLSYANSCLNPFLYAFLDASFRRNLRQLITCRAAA

[3] = biological target: T3, Melanin-concentrating hormone receptor 1 (Homo sapiens, UniProt Q99705); experiment: Late-stage fluorescence-based counterscreen for antagonists of the G-protein coupled receptor 7 (GPR7): cell-based dose response assay to identify antagonists of the melanin-concentrating hormone receptor 1 (MCHR1) Set 5.
[4] = biological target: T3, Melanin-concentrating hormone receptor 1; experiment: Late-stage fluorescence-based counterscreen for antagonists of the G-protein coupled receptor 7 (GPR7): cell-based dose response assay to identify antagonists of the melanin-concentrating hormone receptor 1 (MCHR1) Set 6.
[5] = biological target: T2, Neuropeptides B/W receptor type 1; experiment: GPR7 antagonist potency, late-stage follow-up, cell-based, fluorescence, dose response, set 6 (AID 588583)
[6] = biological target: Dual specificity mitogen-activated protein kinase kinase 2 (Homo sapiens, UniProt P36507); experiment: Navigating the Kinome. Panel member name: MAP2K2
Focal adhesion kinase 1 = Focal adhesion kinase 1 (Homo sapiens, UniProt Q05397);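 note: measured as one member of a kinome panel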
[7] = biological target: Protein kinase C theta type (Homo sapiens, UniProt Q04759); experiment: Navigating the Kinome. Panel member name: PRKCQ
[8] = biological target: cAMP-dependent protein kinase catalytic subunit alpha (Homo sapiens, UniProt P17612)
[9] = biological target: Platelet-derived growth factor receptor beta (Homo sapiens, UniProt P09619);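 note: value comes from a kinome panel, with PDGFRB tested as one panel member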
[10] = biological target: Serine/threonine-protein kinase D3 (Homo sapiens, UniProt O94806);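 note: determined within a kinase panel screen, with PRKCN as the panel member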
[11] = biological target: Macrophage colony-stimulating factor 1 receptor (Homo sapiens, UniProt P07333);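 note: value comes from the Navigating the Kinome screening panel, CSF1R member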
[12] = biological target: Dual specificity mitogen-activated protein kinase kinase 1 (Homo sapiens, UniProt Q02750); experiment: Navigating the Kinome. Panel member name: MAP2K1
Activin receptor type-1 = Activin receptor type-1 (Homo sapiens, UniProt Q04771); experiment: Navigating the Kinome. Panel member name: ACVR1
[13] = biological target: Tyrosine-protein kinase receptor TYRO3 (Homo sapiens, UniProt Q06418);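 note: TYRO3 value obtained as one member of a kinome-wide profiling panel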
[14] = biological target: Mitogen-activated protein kinase kinase kinase kinase 2 (Homo sapiens, UniProt Q12851);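 note: measured as one member of a kinome-wide kinase panel, with MAP4K2 as the panel entry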
[15] = biological target: Glycogen synthase kinase-3 alpha (Homo sapiens, UniProt P49840);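 note: GSK3A result taken from a broad kinome-wide kinase panel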
[16] = biological target: Glycogen synthase kinase-3 beta (Homo sapiens, UniProt P49841);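 note: value comes from a broad kinome profiling panel, with GSK3B as the panel member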
[17] = biological target: Calcium/calmodulin-dependent protein kinase type II subunit alpha (Homo sapiens, UniProt Q9UQM7); experiment: Navigating the Kinome. Panel member name: CAMK2A
[18] = biological target: ALK tyrosine kinase receptor (Homo sapiens, UniProt Q9UM73);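 note: ALK tested as one member of a kinase panel screen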
[19] = biological target: Mitogen-activated protein kinase kinase kinase kinase 4 (Homo sapiens, UniProt O95819)
[20] = biological target: Cyclin-dependent kinase 7 (Homo sapiens, UniProt P50613);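 note: value comes from a kinome-wide kinase profiling panel in which CDK7 is one member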
[21] = biological target: Dual specificity tyrosine-phosphorylation-regulated kinase 1A (Homo sapiens, UniProt Q13627);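 note: measured against DYRK1A as one member of a broad kinome profiling panel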
[22] = biological target: Cyclin-dependent kinase 9 (Homo sapiens, UniProt P50750);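 note: value from the CDK9 entry of a kinome-spanning kinase panel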
[23] = biological target: Vascular endothelial growth factor receptor 2 (Homo sapiens, UniProt P35968)
[24] = biological target: Macrophage-stimulating protein receptor (Homo sapiens, UniProt Q04912); experiment: Navigating the Kinome. Panel member name: MST1R
[25] = biological target: Tyrosine-protein kinase ABL1 (Homo sapiens, UniProt P00519)
[26] = biological target: Leucine-rich repeat serine/threonine-protein kinase 2 (Homo sapiens, UniProt Q5S007);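 note: value from a broad kinome-wide panel profiling study in which LRRK2 was one of the kinases tested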
[27] = biological target: Vascular endothelial growth factor receptor 1 (Homo sapiens, UniProt P17948);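 note: measured within a kinome-wide profiling panel, FLT1 as the panel member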
[28] = biological target: Rho-associated protein kinase 1 (Homo sapiens, UniProt Q13464);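 note: measured within a broad kinome-wide panel profiling many kinases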
[29] = biological target: Death-associated protein kinase 3 (Homo sapiens, UniProt O43293);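 note: measured as one member of a kinome-wide profiling panel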
[30] = biological target: Cyclin-dependent kinase 5 (Homo sapiens, UniProt Q00535);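 note: CDK5 measured as one member of a kinase profiling panel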
[31] = biological target: Fibroblast growth factor receptor 1 (Homo sapiens, UniProt P11362)
Aurora kinase A = Aurora kinase A (Homo sapiens, UniProt O14965);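 note: value from the Navigating the Kinome kinase panel profiling, panel entry STK6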
Activated CDC42 kinase 1 = Activated CDC42 kinase 1 (Homo sapiens, UniProt Q07912); experiment: Navigating the Kinome. Panel member name: ACK1
[32] = biological target: Casein kinase I isoform alpha (Homo sapiens, UniProt P48729)
[33] = biological target: Dual specificity protein kinase CLK4 (Homo sapiens, UniProt Q9HAZ1)
[34] = biological target: Leukocyte tyrosine kinase receptor (Homo sapiens, UniProt P29376); experiment: Navigating the Kinome. Panel member name: LTK
[35] = biological target: cAMP-dependent protein kinase catalytic subunit PRKX (Homo sapiens, UniProt P51817)
[36] = biological target: Hepatocyte growth factor receptor (Homo sapiens, UniProt P08581);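 note: kinase panel profiling across the kinome, with MET as the panel member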
[37] = biological target: Dual specificity tyrosine-phosphorylation-regulated kinase 1B (Homo sapiens, UniProt Q9Y463); experiment: Navigating the Kinome. Panel member name: DYRK1B
[38] = biological target: Dual specificity protein kinase CLK2 (Homo sapiens, UniProt P49760)

T3 sequence (Q99705 whole entry): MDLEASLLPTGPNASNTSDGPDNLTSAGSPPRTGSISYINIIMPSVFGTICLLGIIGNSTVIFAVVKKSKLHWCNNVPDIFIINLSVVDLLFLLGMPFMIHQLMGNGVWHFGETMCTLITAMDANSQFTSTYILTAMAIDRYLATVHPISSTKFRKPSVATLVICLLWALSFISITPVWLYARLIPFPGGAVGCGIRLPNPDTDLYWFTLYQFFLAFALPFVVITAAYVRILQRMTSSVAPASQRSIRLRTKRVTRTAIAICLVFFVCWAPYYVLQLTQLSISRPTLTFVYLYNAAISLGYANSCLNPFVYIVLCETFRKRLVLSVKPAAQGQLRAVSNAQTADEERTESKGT
Sequence of Calcium/calmodulin-dependent protein kinase type II subunit alpha (Q9UQM7 whole entry): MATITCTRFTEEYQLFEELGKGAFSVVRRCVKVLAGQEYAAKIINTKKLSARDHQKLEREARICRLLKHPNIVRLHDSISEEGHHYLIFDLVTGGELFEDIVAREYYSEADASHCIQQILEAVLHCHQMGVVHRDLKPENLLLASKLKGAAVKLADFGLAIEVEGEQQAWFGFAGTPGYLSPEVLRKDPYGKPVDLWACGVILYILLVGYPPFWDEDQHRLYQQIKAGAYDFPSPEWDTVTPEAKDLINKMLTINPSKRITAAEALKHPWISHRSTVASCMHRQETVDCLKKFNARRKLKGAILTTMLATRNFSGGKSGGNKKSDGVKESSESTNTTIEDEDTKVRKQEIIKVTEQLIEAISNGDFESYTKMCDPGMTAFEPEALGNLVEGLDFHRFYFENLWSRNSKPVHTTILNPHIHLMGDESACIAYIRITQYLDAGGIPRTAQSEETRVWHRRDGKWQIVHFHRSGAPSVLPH
Sequence of Dual specificity protein kinase CLK4 (Q9HAZ1 whole entry): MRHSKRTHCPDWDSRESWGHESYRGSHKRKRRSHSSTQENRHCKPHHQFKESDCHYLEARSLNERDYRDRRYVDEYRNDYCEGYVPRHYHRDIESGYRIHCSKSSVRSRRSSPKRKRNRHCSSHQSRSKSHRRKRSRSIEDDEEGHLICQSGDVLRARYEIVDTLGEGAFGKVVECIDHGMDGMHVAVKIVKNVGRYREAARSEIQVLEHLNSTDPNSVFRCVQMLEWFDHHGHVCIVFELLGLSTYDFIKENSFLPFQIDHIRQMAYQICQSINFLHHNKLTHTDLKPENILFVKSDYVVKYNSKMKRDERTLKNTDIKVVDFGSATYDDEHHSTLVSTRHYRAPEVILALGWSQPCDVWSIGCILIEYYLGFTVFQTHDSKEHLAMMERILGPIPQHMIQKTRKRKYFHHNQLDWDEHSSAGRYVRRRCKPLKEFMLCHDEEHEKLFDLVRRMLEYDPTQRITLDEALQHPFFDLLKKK
Sequence of Tyrosine-protein kinase ABL1 (P00519 whole entry): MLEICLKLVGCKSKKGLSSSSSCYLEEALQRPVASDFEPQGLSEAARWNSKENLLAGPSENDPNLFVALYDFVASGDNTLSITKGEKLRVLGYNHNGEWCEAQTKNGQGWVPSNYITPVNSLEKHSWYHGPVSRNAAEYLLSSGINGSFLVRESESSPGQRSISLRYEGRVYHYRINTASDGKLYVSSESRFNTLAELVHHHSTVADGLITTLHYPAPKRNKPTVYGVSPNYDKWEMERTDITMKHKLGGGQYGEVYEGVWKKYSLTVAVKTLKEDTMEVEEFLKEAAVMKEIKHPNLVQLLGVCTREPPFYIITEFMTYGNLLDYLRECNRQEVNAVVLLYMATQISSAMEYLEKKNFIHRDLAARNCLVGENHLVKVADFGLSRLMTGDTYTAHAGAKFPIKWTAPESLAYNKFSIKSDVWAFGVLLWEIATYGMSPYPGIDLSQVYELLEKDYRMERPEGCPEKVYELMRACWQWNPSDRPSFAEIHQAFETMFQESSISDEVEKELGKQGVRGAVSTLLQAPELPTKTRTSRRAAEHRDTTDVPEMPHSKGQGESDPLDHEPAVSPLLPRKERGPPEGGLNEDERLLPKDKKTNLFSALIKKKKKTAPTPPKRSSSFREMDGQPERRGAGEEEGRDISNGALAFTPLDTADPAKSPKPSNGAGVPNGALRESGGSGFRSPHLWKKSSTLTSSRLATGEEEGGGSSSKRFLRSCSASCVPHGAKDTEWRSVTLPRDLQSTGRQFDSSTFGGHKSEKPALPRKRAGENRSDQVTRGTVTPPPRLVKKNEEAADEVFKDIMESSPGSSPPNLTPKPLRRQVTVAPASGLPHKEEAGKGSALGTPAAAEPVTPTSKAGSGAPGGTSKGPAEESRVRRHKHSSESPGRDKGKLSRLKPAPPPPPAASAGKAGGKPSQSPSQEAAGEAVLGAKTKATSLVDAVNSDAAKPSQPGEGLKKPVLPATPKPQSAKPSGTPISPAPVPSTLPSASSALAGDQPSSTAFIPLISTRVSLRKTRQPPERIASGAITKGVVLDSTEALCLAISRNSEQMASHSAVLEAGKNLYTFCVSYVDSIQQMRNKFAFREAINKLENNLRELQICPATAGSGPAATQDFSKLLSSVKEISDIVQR
Sequence of Glycogen synthase kinase-3 alpha (P49840 whole entry): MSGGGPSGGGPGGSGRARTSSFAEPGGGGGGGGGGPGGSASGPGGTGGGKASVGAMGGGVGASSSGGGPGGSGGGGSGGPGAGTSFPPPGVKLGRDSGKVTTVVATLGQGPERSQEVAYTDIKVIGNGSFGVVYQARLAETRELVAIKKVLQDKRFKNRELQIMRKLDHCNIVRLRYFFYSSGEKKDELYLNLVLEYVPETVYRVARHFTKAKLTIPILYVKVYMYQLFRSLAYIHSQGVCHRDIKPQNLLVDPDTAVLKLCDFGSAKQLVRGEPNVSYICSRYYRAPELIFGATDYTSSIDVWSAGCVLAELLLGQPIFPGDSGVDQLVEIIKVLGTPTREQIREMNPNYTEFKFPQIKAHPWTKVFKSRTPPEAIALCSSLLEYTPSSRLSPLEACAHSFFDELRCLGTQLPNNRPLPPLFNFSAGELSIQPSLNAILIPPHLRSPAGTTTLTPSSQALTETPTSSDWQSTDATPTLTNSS
Sequence of Hepatocyte growth factor receptor (P08581 whole entry): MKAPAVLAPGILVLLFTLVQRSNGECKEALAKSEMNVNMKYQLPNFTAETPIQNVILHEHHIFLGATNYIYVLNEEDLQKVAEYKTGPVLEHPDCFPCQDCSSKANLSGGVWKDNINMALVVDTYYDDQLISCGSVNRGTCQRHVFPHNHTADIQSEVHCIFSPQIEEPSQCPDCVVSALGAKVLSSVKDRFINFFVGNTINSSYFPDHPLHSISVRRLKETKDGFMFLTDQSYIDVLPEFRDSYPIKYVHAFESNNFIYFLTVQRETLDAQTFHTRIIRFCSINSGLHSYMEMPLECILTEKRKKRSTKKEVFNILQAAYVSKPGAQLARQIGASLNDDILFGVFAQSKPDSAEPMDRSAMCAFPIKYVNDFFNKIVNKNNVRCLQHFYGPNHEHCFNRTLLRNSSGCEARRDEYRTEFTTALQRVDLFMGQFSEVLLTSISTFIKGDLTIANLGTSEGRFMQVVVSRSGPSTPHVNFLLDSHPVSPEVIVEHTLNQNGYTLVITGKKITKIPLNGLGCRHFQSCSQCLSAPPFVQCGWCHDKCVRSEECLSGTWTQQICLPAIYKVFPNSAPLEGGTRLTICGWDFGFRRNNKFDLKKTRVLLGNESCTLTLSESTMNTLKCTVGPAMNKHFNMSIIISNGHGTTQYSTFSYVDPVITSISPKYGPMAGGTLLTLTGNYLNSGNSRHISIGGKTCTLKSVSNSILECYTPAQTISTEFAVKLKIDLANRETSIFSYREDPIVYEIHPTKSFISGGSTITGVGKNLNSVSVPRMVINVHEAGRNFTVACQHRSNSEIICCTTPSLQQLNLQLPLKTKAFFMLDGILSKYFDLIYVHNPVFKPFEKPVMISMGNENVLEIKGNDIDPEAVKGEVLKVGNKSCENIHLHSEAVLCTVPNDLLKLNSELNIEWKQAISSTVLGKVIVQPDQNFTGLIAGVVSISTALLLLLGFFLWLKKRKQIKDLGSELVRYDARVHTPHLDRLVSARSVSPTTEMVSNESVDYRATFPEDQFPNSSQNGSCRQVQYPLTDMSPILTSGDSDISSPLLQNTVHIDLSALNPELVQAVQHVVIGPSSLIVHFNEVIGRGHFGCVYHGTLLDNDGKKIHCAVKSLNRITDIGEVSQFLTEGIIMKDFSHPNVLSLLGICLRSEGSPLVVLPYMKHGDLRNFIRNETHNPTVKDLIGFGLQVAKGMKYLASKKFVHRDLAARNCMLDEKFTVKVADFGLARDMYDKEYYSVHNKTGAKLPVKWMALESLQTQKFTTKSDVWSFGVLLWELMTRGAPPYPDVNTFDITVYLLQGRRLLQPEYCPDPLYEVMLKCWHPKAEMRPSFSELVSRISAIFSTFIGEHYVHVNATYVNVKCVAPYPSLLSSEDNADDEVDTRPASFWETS
Sequence of Cyclin-dependent kinase 9 (P50750 whole entry): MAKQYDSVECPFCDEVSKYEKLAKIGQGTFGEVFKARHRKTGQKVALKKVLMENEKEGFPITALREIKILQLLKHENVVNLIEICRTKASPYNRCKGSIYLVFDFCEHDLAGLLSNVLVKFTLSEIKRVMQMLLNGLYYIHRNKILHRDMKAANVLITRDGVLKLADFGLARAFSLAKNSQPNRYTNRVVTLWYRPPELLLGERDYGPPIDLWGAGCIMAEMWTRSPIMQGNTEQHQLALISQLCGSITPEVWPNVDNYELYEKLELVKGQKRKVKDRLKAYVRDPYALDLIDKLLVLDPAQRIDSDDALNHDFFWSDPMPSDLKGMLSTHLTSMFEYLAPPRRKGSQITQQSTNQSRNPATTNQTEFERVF
Sequence of Cyclin-dependent kinase 5 (Q00535 whole entry): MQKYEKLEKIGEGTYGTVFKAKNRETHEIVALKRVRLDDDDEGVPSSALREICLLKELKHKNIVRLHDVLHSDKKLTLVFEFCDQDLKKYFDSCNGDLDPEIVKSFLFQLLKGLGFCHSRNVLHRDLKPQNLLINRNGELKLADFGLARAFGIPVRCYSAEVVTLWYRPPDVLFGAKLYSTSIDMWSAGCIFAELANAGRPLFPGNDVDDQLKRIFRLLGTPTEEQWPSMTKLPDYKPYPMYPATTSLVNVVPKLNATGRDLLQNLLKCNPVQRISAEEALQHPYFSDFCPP

O=C(Nc1ccc2[nH]c(-c3cccs3)nc2c1)c1cccs1
inactive: IC50 [1] > 100 µM

N#CC(c1cccnc1)c1cnn(Cc2cccc3ccccc23)c(=O)c1Cl (configuration not stated)
active: IC50 [2] 1.18 µM | IC50 [3] 3.67 µM

CCC(C#N)(c1ccccc1)c1c(Br)cnn(Cc2cccc3ccccc23)c1=O (configuration not stated)
active: IC50 [4] 8.2 µM | IC50 [5] 8.2 µM

Nc1n[nH]c2cccc(-c3ccc(F)cc3)c12
inactive: Ki [22] > 63.1 µM | Ki (Aurora kinase A) > 39.8 µM
active: Ki [6] 1.26 µM | Ki (Focal adhesion kinase 1) 20 µM | Ki [7] 20 µM | Ki [8] 0.0794 µM | Ki [9] 6.31 µM | Ki [10] 79.4 µM | Ki [11] 7.94 µM | Ki [12] 0.251 µM | Ki (Activin receptor type-1) 1 µM | Ki [13] 39.8 µM | Ki [14] 31.6 µM | Ki [15] 20 µM | Ki [16] 20 µM | Ki [17] 25.1 µM | Ki [18] 63.1 µM | Ki [19] 20 µM | Ki [20] 20 µM | Ki [21] 25.1 µM | Ki [23] 12.6 µM | Ki [24] 63.1 µM | Ki [25] 15.8 µM | Ki [26] 1.26 µM | Ki [27] 79.4 µM | Ki [28] 0.501 µM | Ki [29] 39.8 µM | Ki [30] 20 µM | Ki [31] 63.1 µM | Ki (Activated CDC42 kinase 1) 15.8 µM | Ki [32] 7.94 µM | Ki [33] 0.0398 µM | Ki [34] 31.6 µM | Ki [35] 0.501 µM | Ki [36] 31.6 µM | Ki [37] 6.31 µM | Ki [38] 2 µM
